How the values were obtained:
[1] = biological target: P2Y purinoceptor 12 (Homo sapiens) (UniProt Q9H244); experiment: Antagonist activity at P2Y12 receptor assessed as platelet aggregation at 30 uM by washed platelet assay; assay type: functional
[2] = Antagonist activity at P2Y12 receptor assessed as platelet aggregation by washed platelet assay

Sequence of P2Y purinoceptor 12 (Homo sapiens) (Q9H244 whole entry): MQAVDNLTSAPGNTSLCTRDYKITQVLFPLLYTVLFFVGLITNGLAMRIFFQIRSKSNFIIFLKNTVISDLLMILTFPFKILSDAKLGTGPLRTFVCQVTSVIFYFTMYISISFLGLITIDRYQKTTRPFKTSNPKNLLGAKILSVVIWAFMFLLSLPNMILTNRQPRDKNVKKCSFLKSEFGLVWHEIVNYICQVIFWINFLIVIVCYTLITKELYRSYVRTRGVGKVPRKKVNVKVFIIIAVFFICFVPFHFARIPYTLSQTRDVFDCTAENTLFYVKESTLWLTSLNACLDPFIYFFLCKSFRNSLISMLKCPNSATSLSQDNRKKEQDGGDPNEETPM

Compound | inhibition [1] | IC50 [2]
CCNC(=O)Nc1ncnc2c1ncn2[C@@H]1O[C@H](CSC)[C@H]2O[C@H](/C=C/c3ccccc3)O[C@H]21 | 63% | 
CCNC(=O)Nc1ncnc2c1ncn2[C@@H]1O[C@H](CNCc2nccs2)[C@H]2O[C@H](/C=C/c3ccccc3)O[C@H]21 | 73% | 
CCNC(=O)Nc1ncnc2c1ncn2[C@@H]1O[C@H](CN(CC2CC2C(=O)OCC)CC2CC2C(=O)OCC)[C@H]2O[C@H](/C=C/c3ccccc3)O[C@H]21 (stereo not given in full) | 46% | 
CCCSC[C@H]1O[C@@H](n2cnc3c(NC(=O)NCC)ncnc32)[C@@H]2O[C@@H](/C=C/c3ccccc3)O[C@@H]21 | 52% | 
CCNC(=O)Nc1ncnc2c1ncn2[C@@H]1O[C@H](CNCc2ccccc2O)[C@H]2O[C@H](/C=C/c3ccccc3)O[C@H]21 | 70% | 
CCNC(=O)Nc1ncnc2c1ncn2[C@@H]1O[C@H](CS(=O)(=O)CC(O)CO)[C@H]2O[C@H](/C=C/c3ccccc3)O[C@H]21 (stereo not given in full) | 14% | 
CCCS(=O)(=O)C[C@H]1O[C@@H](n2cnc3c(NC(=O)NCC)ncnc32)[C@@H]2O[C@@H](/C=C/c3ccccc3)O[C@@H]21 | 65% | 
CCNC(=O)Nc1ncnc2c1ncn2[C@@H]1O[C@H](CSCC(C)O)[C@H]2O[C@H](/C=C/c3ccccc3)O[C@H]21 (stereo not given in full) | 76% | 
CCCCCCCSC[C@H]1O[C@@H](n2cnc3c(NC(=O)NCC)ncnc32)[C@@H]2O[C@@H](/C=C/c3ccccc3)O[C@@H]21 | 38% | 
CCNC(=O)Nc1ncnc2c1ncn2[C@@H]1O[C@H](CSCCCS(=O)(=O)O)[C@H]2O[C@H](/C=C/c3ccccc3)O[C@H]21 | 90% | 
CCNC(=O)Nc1ncnc2c1ncn2[C@@H]1O[C@H](COP(=O)(O)O)[C@H]2O[C@H](/C=C/c3ccccc3)O[C@H]21 [REGRELOR DISODIUM] |  | 0.016 µM
CCNC(=O)Nc1ncnc2c1ncn2[C@@H]1O[C@H](CSCCO)[C@H]2O[C@H](/C=C/c3ccccc3)O[C@H]21 | 63% | 
CCNC(=O)Nc1ncnc2c1ncn2[C@@H]1O[C@H](CS(=O)(=O)CCO)[C@H]2O[C@H](/C=C/c3ccccc3)O[C@H]21 | 57% | 
CCNC(=O)Nc1ncnc2c1ncn2[C@@H]1O[C@H](CNC/C(C)=C/C(=O)OCC)[C@H]2O[C@H](/C=C/c3ccccc3)O[C@H]21 | 70% | 
CCNC(=O)Nc1ncnc2c1ncn2[C@@H]1O[C@H](CNC(=O)c2[nH]c(C)c(C(C)=O)c2C)[C@H]2O[C@H](/C=C/c3ccccc3)O[C@H]21 | 53% | 
